The values that follow come from patent publication US11629171B2, “Beta-hairpin peptidomimetics” (POLYPHOR AG, priority 2017, dated 2023).

What is called MIC is the smallest concentration in the dilution series that meets the test's criterion for growth inhibition. Read a low MIC as greater potency.

What all share (assay type): cell-based
For one series, the system named is Escherichia coli 926415. The settings on record: 926415. Summed up: (§1)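 CLSI broth microdilution: inoculum ~10^6 CFU/mL in cation-adjusted Mueller-Hinton II broth, with peptide in serial two-fold dilutions plus Polysorbate 80 (0.002% final). MIC (μg/mL) is the lowest concentration without visible growth after 18-20 hours at 35° C.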
Series [1] concerns Klebsiella pneumoniae SSI #3010. The settings on record: SSI #3010. Summed up: as §1
For series [2], the system named is Acinetobacter baumannii 872842. Particulars: 872842. Summed up: as §1
Series [3] relates to Acinetobacter baumannii DSM 30008. The settings on record: DSM 30008. An outline of the steps:
as §1

In series [4] the test system is Pseudomonas aeruginosa ATCC 27853. Particulars: ATCC 27853. Summed up:
as §1

Series [5] has as its system Escherichia coli ATCC 25922. Particulars: ATCC 25922. An outline of the steps: as §1
The test system of series [6] is Enterobacter cloacae 848840. The settings on record: 848840. Summed up: as §1
In series [7] the test system is Klebsiella pneumoniae 968733. Particulars: 968733. An outline of the steps: as §1
Series [8] relates to human red blood cells (hRBC). The experiment in a line: Hemolysis. Particulars: red cells of human, 1 h, 200. An outline of the steps:
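Washed fresh human RBC (20% v/v) incubated with peptide at 200 μg/mL for 1 h at 37° C with shaking. Supernatant OD540 measured after dilution, blank corrected; percent hemolysis = OD540 peptide / OD540 of 2% Triton X-100 lysis × 100, PBS with 10% water as 0%.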

Values after ≈ are worked out from the molar mass of the structure shown. Where a SMILES comes first, the peptide text is derived from it. Bridges are numbered along the chain shown (N, C = ends). Roman numbers before positions name the chains, in order. [ ]: non-standard residue; d: D form. Tle = CC(C)(C)[C@H](N)C(=O)O; dDab = NCC[C@@H](N)C(=O)O; Dab = NCC[C@H](N)C(=O)O; Dap = NC[C@H](N)C(=O)O; Mpa = O=C(O)CCS

For `CC(=O)N[C@@H](CCN)C(=O)N[C@H](C(=O)N[C@H](C(=O)N[C@@H](Cc1ccc(O)cc1)C(=O)N[C@@H](CN)C(=O)N[C@@H](CCC(=O)N[C@@H](CCN)C(=O)N[C@H](C(=O)N[C@@H](CN)C(=O)N[C@H]1CCNC(=O)[C@H]([C@@H](C)O)NC(=O)[C@H](CCN)NC(=O)[C@H](CCN)NC(=O)[C@H](CC(C)C)NC(=O)[C@@H](CC(C)C)NC(=O)[C@H](CCN)NC1=O)[C@@H](C)O)C(=O)N[C@H](CCN)C(=O)N[C@@H](CO)C(=O)N[C@@H](Cc1c[nH]c2ccccc12)C(=O)N[C@@H](CO)C(=O)N[C@H](C(=O)N[C@@H](CO)C(=O)N[C@H](C(=O)N[C@@H](CCC(=O)O)C(N)=O)C(C)C)C(C)(C)C)[C@@H](C)O)C(C)C` [Ex. 249] (I: Ac-[Dab]VTY[Dap]E[dDab]SWS[Tle]SVE-NH2 / II: [Dab]T[Dap][Dab][Dab][dL]L[Dab][Dab]T; amide I:6-II:N; lactam II:4-II:C), the MIC in the series on Escherichia coli 926415 is 0.125 µg/mL (≈ 0.0476 µM); in series [1], 0.0625 µg/mL (≈ 0.0238 µM); in [2] it was 0.03125 µg/mL (≈ 0.0119 µM); in series [3] it was 0.03125 µg/mL (≈ 0.0119 µM); in [4] it was 0.125 µg/mL (≈ 0.0476 µM); in series [5], 0.03125 µg/mL (≈ 0.0119 µM). Further, the MIC turned out to be 0.125 µg/mL (≈ 0.0476 µM) in [6] and 0.25 µg/mL (≈ 0.0953 µM) in series [7]. Also, in series [8], the “Hemolysis at 200 μg/mL” value was 2%.

For `CC(C)C[C@@H]1NC(=O)[C@@H](CC(C)C)NC(=O)[C@H](CCN)NC(=O)[C@@H](NC(=O)[C@H](CN)NC(=O)[C@@H](NC(=O)[C@H](CCN)NC(=O)CC[C@@H]2NC(=O)[C@H](CO)NC(=O)[C@H](Cc3ccc(O)cc3)NC(=O)[C@H]([C@@H](C)O)NC(=O)[C@H](C(C)C)NC(=O)CCSSC[C@@H](C(N)=O)NC(=O)[C@H]([C@@H](C)O)NC(=O)[C@H](C)NC(=O)[C@H](C(C)(C)C)NC(=O)[C@H](CCC(=O)O)NC(=O)[C@H](Cc3c[nH]c4ccccc34)NC(=O)[C@H](CCN)NC(=O)[C@@H](CCN)NC2=O)[C@@H](C)O)CCNC(=O)[C@H]([C@@H](C)O)NC(=O)[C@H](CCN)NC(=O)[C@H](CCN)NC1=O` [Ex. 250] (I: [Mpa]VTYSE[dDab][Dab]WE[Tle]ATC-NH2 / II: [Dab]T[Dap][Dab][Dab][dL]L[Dab][Dab]T; disulfide I:1-I:14; amide I:6-II:N; lactam II:4-II:C), the MIC with Escherichia coli 926415 stood at 0.0625 µg/mL (≈ 0.0242 µM); in [1], 0.0625 µg/mL (≈ 0.0242 µM); in [2], 0.03125 µg/mL (≈ 0.0121 µM); in series [3], 0.03125 µg/mL (≈ 0.0121 µM); in [4], 0.125 µg/mL (≈ 0.0484 µM); in [5] it was 0.03125 µg/mL (≈ 0.0121 µM). The MIC in [6] worked out at 0.0625 µg/mL (≈ 0.0242 µM); in [7], 0.125 µg/mL (≈ 0.0484 µM). Also, the “Hemolysis at 200 μg/mL” value in [8] came out at 1%.

Regarding `CC(=O)N[C@H](C(=O)N[C@H]1CSSC[C@@H](C(=O)N[C@@H](CO)C(N)=O)NC(=O)[C@H](C(C)C)NC(=O)[C@H](CO)NC(=O)[C@H](Cc2c[nH]c3ccccc23)NC(=O)[C@H](CCN)NC(=O)[C@@H](CCN)NC(=O)[C@H](CCC(=O)N[C@@H](CCN)C(=O)N[C@H](C(=O)N[C@@H](CN)C(=O)N[C@H]2CCNC(=O)[C@H]([C@@H](C)O)NC(=O)[C@H](CCN)NC(=O)[C@H](CCN)NC(=O)[C@H](CC(C)C)NC(=O)[C@@H](CC(C)C)NC(=O)[C@H](CCN)NC2=O)[C@@H](C)O)NC(=O)[C@H](CO)NC(=O)[C@H](Cc2ccc(O)cc2)NC1=O)C(C)C` [Ex. 251] (I: Ac-VCYSE[dDab][Dab]WSVCS-NH2 / II: [Dab]T[Dap][Dab][Dab][dL]L[Dab][Dab]T; disulfide I:2-I:11; amide I:5-II:N; lactam II:4-II:C), the MIC in the series with Escherichia coli 926415 came to 0.125 µg/mL (≈ 0.0521 µM); in [1] it was 0.03125 µg/mL (≈ 0.013 µM); in series [2], 0.03125 µg/mL (≈ 0.013 µM); in series [3] it was 0.01562 µg/mL (≈ 0.00651 µM); in series [4] it was 0.0625 µg/mL (≈ 0.0261 µM); in [5], 0.03125 µg/mL (≈ 0.013 µM). Also, the MIC is 0.125 µg/mL (≈ 0.0521 µM) in series [6] and 0.0625 µg/mL (≈ 0.0261 µM) in series [7]. Also, the “Hemolysis at 200 μg/mL” value in [8] is 1%.
